Test results from ChEMBL document CHEMBL1201862, “PubChem BioAssay data set” (2004).
Calls of active or inactive are those of the source.

Key:
[1] = ADAM10 inhibitors, peptide cleavage, dose response, biochemical, QFRET (AID 743254);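 note: ADAM10 enzyme with the DM2 quenched FRET peptide as substrate; EDANS fluorescence gain as the protease cuts the substrate; inhibitor potency against ADAM10 proteolytic activity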
CAAX prenyl protease 1 = CAAX prenyl protease 1 (Saccharomyces cerevisiae S288c, UniProt P47154); assay: Ste24 protease inhibitors, dose response, biochemical, S. cerevisiae, plate reader, cherry-pick (AID 488815)
CAAX prenyl protease 2 = biological target: T1, CAAX prenyl protease 2 (Saccharomyces cerevisiae S288c, UniProt Q03530); type: biochemical
T1 sequence (Q03530 whole entry): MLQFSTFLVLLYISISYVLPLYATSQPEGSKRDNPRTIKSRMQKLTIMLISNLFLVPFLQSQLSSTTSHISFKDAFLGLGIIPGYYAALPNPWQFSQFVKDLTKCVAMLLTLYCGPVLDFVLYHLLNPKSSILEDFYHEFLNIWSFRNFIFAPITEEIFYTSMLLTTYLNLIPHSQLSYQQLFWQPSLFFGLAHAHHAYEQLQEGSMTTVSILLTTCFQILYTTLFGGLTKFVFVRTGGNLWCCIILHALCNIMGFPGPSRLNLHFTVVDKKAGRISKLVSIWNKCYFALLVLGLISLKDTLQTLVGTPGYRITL

[2] = biological target: Disintegrin and metalloproteinase domain-containing protein 17 (Homo sapiens, UniProt P78536); assay: ADAM17 protease inhibitors, dose response, counter-screen for ADAM10 exosite inhibitor project, biochemical, quenched FRET substrate (AID 743253)
Paired box protein Pax-8 = Paired box protein Pax-8 (Homo sapiens, UniProt Q06710); assay: inhibitors of PAX8-driven TPO luciferase reporter, dose response, RMG-I cells, cherry-pick (AID 687027); type: functional, cell-based;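 note: luciferase reporter driven by Pax8 target thyroperoxidase promoter measured by SteadyGlo luminescence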
[3] = biological target: T2, Dual specificity protein phosphatase 3 (Homo sapiens, UniProt P51452); assay: VHR1 phosphatase inhibitors, primary screen, biochemical, absorbance, uHTS (AID 1654)
[4] = biological target: T2, Dual specificity protein phosphatase 3; assay: VHR1 phosphatase inhibitors, biochemical (AID 1878)
[5] = biological target: Tyrosine-protein phosphatase non-receptor type 11 (Homo sapiens, UniProt Q06124); assay: SHP2 phosphatase inhibition, dose response, selectivity assay for STEP inhibitor project, biochemical (AID 602367); type: functional; conditions: read-out: IC50_Mean
[6] = biological target: T2, Dual specificity protein phosphatase 3; assay: VHR phosphatase inhibition, dose response, selectivity assay for STEP inhibitor project, biochemical (AID 602374); type: functional; conditions: read-out: IC50_Mean
[7] = biological target: Tyrosine-protein phosphatase non-receptor type 5 (Homo sapiens, UniProt P54829); assay: STEP phosphatase inhibitors, confirmation, biochemical, fluorescence intensity, uHTS hits (AID 602372); type: functional; conditions: read-out: IC50_Mean
[8] = biological target: T3, Dual specificity protein phosphatase 6 (Rattus norvegicus, UniProt Q64346); assay: MKP-3 phosphatase inhibitors, primary screen, biochemical, rat enzyme, in vitro (AID 425)
T3 sequence (Q64346 whole entry): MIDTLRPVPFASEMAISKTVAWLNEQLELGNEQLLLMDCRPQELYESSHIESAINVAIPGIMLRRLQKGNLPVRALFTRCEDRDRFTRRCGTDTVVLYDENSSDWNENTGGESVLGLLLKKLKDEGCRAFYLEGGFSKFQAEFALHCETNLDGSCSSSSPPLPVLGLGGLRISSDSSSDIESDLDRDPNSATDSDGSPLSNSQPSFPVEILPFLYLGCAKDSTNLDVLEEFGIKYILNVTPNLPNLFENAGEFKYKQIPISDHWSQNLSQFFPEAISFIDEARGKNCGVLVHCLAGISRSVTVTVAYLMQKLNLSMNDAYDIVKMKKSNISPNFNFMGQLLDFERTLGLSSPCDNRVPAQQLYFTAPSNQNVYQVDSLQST

[9] = biological target: T4, Tyrosine-protein phosphatase non-receptor type 7 (Homo sapiens, UniProt P35236); assay: redox-dependent HePTP inhibition, mechanism study, biochemical, fluorescence (AID 2068); type: functional
T4 sequence (P35236 whole entry): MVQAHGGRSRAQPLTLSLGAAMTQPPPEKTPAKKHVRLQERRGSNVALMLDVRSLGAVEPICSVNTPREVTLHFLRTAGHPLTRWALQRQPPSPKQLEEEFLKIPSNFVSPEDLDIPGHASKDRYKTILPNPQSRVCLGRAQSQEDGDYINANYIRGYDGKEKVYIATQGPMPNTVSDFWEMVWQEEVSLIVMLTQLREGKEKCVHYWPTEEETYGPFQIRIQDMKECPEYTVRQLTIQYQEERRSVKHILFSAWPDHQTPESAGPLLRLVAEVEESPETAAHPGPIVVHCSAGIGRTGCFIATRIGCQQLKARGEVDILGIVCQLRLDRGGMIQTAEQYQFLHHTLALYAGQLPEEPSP

[10] = biological target: T2, Dual specificity protein phosphatase 3; assay: SAR VHR1 absorbance Assay for In Vitro dose response studies. [Related pubchem assays (depositor defined):AID1654, AID1661, AID1878, AID1992, AID2004]
[11] = biological target: T3, Dual specificity protein phosphatase 6; type: functional
[12] = biological target: T2, Dual specificity protein phosphatase 3; assay: SAR VHR1 Fluorescent Assay for In Vitro dose response studies. [Related pubchem assays (depositor defined):AID1654, AID1661, AID1878, AID1992, AID2004, AID2070, AID2085]; type: functional
[13] = biological target: Likely tRNA 2'-phosphotransferase (Candida albicans (strain SC5314 / ATCC MYA-2876) (Yeast), UniProt Q5A7N4); assay: TPT1 tRNA phosphotransferase inhibitors, dose response, biochemical, fluorescence polarization (AID 2160)
[14] = biological target: Guanyl-specific ribonuclease T1 (Aspergillus oryzae (strain ATCC 42149 / RIB 40), UniProt P00651); assay: RNase T1 inhibitors, dose response, counter-screen for TPT1 inhibitor project, biochemical, fluorescence polarization, 1536-well (AID 2167)
[15] = biological target: Lysine-specific demethylase 4C (Homo sapiens, UniProt Q9H3R0); assay: GASC-1 (JMJD2C) histone demethylase inhibitors, dose response, biochemical, DELFIA europium, cherry-picked samples (AID 488835); type: functional
[16] = biological target: Lysine-specific demethylase 4A (Homo sapiens, UniProt O75164); assay: JMJD2A histone demethylase inhibitors, dose response, selectivity assay for GASC-1 inhibitor project, biochemical, DELFIA europium, cherry-picked samples (AID 488840)
Hexokinase HKDC1 = biological target: T5, Hexokinase HKDC1 (Homo sapiens, UniProt Q2TB90); assay: HKDC1 hexokinase inhibitors, dose response, biochemical, W721R variant (AID 504729); type: functional
T5 sequence (Q2TB90 whole entry): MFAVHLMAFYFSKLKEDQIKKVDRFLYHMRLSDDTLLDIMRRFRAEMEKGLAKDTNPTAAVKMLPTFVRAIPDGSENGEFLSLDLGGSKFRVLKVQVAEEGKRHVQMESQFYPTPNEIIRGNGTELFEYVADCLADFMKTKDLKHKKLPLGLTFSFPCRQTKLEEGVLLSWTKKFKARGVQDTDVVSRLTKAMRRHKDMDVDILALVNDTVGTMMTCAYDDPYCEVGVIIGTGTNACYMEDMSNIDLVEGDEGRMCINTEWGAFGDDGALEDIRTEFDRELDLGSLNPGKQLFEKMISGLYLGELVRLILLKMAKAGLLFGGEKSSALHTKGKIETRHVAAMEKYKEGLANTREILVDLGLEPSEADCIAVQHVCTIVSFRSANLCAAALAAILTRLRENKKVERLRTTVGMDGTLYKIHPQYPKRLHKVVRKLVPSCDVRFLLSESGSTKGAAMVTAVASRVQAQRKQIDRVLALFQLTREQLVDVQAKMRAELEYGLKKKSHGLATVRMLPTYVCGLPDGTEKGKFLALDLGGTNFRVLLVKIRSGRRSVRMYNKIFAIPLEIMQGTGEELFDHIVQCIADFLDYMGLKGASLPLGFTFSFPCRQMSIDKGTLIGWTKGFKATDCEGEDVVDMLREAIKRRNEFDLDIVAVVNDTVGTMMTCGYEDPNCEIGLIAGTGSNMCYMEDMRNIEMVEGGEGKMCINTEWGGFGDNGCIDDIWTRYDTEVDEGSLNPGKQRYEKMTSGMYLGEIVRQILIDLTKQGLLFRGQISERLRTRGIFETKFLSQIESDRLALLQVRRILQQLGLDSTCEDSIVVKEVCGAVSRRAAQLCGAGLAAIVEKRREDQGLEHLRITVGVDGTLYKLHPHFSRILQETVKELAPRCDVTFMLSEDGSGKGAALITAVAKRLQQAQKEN

[17] = inhibitors of Trypanosoma cruzi host-cell infection, confirmation, beta-gal luminescence, NIH3T3 host cells (AID 2630); type: functional, cell-based; conditions: Mus musculus
[18] = Luminescence Cell-Based Secondary HTS screen to identify cytotoxic compounds of NIH3T3 cells. [Related pubchem assays: 1885, 1968 ]; type: functional
[19] = Luminescence Cell-Based/Microorganism Confirmation at Dose of Inhibitors of Trypanosoma cruzi Infection. [Related pubchem assays: 1885, 1968 ]; type: functional
[20] = biological target: Voltage-dependent T-type calcium channel subunit alpha-1H (Homo sapiens, UniProt O95180); assay: Cav3.2 T-type channel blockers, cell-based, SynthLib3 library, HEK293 Cav3.2, fluorescence (AID 493041); type: functional
[21] = growth suppression of PTEN-null colon cells, dose response, cell-based, HCT116 PTEN knockout (AID 1047); type: functional;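 note: HCT116 colon tumor cells with PTEN knocked out; cells exposed to compound for 60 hours before readout; potency for loss of cell viability measured by luminescence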
[22] = cytotoxicity in HMLE control line with eGFP shRNA, dose response, counter-screen for HMLE_sh_ECad selective toxicity project, cell-based, HMLE_sh_eGFP, luminescence (AID 463074); type: functional, Homo sapiens;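 note: HMLE human mammary epithelial cells expressing control shRNA against eGFP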
[23] = growth suppression of beta-catenin-knockout colon cells, dose response, cell-based, HCT116, human colon tumor (AID 1045); type: functional;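 note: HCT116 colon tumor cells with beta catenin knocked out; cells exposed to compound for 60 hours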
[24] = Luminescence Cell-Based Dose Retest to Confirm Inhibitors of Cancer Stem Cells. [Related pubchem assays (depositor defined):AID2717, AID2721]; type: functional; conditions: Homo sapiens
[25] = biological target: T6, Microphthalmia-associated transcription factor (Homo sapiens, UniProt O75030); assay: TRPM1 promoter luciferase signal decrease, dose response, MITF inhibitor project, cell-based, SK-MEL-5, cherry-picked, set 3 (AID 493073); type: functional
T6 sequence (O75030 whole entry): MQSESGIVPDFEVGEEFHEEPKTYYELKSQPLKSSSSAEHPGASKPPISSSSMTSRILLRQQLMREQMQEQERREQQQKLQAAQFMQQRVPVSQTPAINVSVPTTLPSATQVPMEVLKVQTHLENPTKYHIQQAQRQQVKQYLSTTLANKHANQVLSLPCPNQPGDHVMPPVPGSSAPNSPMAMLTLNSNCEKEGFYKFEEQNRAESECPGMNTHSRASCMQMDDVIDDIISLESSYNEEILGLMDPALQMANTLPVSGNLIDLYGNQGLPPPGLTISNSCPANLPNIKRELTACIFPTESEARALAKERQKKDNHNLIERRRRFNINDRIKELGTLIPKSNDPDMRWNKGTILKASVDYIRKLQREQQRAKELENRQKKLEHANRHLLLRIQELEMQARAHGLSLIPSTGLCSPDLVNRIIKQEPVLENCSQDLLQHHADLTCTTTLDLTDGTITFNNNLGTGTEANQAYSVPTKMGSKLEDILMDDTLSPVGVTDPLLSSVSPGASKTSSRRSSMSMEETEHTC

[26] = Counterscreen for AddAB inhibitors: absorbance-based bacterial cell-based high throughput dose response assay for inhibitors of bacterial viability. [Related pubchem assays (depositor defined):AID435030, AID449728, AID449731, AID488942, AID488955, AID488956]; type: functional
Exodeoxyribonuclease V = Exodeoxyribonuclease V (Escherichia coli (strain K12), UniProt P04993+P07648+P08394); assay: E. coli RecBCD inhibitors, dose response, counter-screen for AddAB inhibitor project, absorbance, V66 E. coli, mutant T4 phage (AID 492957); type: functional, cell-based, Escherichia coli str. K-12 substr. MG1655
Nonstructural protein 1 = Nonstructural protein 1 (Influenza A virus, UniProt Q194T2); type: functional, Influenza A virus (A/California/07/2009(H1N1))
Chain of Nonstructural protein 1 (Q194T2 whole entry): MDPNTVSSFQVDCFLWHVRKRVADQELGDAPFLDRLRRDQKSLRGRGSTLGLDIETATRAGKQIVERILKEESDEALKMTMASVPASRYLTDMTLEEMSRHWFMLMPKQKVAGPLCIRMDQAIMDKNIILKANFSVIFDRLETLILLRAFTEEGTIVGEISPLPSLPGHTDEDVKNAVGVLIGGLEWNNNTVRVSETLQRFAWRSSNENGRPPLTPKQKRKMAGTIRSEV

T2 sequence (P51452 whole entry): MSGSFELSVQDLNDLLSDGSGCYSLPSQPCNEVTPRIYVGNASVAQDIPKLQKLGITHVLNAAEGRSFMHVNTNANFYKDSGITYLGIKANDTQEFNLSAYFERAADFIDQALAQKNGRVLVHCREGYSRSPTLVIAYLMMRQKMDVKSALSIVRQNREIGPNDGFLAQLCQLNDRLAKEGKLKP
Chain of Tyrosine-protein phosphatase non-receptor type 11 (Q06124 whole entry): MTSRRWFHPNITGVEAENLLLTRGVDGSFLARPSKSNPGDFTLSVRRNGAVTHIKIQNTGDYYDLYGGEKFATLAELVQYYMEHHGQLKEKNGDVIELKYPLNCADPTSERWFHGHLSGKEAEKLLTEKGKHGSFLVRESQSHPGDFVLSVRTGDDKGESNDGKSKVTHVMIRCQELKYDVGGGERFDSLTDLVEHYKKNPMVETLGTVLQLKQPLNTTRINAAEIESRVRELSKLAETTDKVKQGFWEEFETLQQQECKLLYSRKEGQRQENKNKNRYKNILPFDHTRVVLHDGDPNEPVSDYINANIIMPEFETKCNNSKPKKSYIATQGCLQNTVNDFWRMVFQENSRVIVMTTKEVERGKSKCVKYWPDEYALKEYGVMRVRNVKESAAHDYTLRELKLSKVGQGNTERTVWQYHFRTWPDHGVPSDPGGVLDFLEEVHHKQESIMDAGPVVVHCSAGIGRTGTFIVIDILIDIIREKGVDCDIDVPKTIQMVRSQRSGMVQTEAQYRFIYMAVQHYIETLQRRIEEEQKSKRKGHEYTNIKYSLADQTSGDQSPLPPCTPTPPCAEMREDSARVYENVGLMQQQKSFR
Chain of Tyrosine-protein phosphatase non-receptor type 5 (P54829 whole entry): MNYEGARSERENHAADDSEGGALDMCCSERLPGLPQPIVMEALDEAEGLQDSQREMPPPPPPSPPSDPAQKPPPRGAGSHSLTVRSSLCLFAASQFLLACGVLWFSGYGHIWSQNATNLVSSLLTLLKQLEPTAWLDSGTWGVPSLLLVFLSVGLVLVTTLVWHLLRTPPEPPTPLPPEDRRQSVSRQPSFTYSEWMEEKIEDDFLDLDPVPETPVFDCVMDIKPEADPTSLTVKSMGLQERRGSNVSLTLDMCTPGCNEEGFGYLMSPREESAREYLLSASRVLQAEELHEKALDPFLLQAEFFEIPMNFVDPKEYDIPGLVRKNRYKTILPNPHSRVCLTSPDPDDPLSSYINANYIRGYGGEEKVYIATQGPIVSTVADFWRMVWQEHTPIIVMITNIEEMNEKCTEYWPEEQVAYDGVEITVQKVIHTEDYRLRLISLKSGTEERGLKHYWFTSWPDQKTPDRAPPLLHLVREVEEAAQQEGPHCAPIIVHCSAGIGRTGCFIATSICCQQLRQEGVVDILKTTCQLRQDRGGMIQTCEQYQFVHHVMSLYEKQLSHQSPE
Chain of Paired box protein Pax-8 (Q06710 whole entry): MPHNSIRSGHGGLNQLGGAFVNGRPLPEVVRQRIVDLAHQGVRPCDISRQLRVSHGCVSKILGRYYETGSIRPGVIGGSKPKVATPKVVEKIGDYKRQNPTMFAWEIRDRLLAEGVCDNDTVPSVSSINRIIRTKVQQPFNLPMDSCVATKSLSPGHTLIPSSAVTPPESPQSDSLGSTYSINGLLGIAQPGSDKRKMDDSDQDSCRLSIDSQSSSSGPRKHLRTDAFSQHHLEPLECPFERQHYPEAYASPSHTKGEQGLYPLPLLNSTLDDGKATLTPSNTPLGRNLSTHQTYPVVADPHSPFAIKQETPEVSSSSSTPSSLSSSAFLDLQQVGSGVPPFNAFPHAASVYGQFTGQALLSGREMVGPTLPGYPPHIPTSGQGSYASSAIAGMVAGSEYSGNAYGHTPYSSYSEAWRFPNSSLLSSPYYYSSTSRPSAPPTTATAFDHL
Chain of Lysine-specific demethylase 4A (O75164 whole entry): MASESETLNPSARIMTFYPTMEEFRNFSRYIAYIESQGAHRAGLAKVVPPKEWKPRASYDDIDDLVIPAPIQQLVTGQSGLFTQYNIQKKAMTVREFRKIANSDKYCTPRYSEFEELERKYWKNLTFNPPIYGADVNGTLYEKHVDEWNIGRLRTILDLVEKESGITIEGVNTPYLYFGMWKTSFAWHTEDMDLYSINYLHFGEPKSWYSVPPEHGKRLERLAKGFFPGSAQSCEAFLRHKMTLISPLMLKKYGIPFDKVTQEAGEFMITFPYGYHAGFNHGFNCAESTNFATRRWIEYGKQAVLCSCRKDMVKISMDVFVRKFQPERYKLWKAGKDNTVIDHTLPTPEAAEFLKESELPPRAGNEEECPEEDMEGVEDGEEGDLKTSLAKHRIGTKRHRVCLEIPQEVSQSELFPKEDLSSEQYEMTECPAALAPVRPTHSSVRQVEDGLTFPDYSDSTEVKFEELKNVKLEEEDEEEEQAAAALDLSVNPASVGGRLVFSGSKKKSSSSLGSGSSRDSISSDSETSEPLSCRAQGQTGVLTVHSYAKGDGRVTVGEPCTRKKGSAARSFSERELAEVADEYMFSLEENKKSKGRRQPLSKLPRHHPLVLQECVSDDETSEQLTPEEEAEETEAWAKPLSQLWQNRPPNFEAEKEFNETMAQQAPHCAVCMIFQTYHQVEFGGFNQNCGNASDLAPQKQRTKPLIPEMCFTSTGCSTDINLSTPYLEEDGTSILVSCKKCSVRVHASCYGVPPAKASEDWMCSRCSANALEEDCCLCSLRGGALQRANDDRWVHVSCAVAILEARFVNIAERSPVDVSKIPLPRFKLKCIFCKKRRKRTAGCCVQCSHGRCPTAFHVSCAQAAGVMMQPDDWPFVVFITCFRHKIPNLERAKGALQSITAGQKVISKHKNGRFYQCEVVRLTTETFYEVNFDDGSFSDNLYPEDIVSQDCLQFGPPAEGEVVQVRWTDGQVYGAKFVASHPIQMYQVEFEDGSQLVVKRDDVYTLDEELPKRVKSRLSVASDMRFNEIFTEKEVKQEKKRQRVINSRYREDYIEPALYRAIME
Chain of CAAX prenyl protease 1 (P47154 whole entry): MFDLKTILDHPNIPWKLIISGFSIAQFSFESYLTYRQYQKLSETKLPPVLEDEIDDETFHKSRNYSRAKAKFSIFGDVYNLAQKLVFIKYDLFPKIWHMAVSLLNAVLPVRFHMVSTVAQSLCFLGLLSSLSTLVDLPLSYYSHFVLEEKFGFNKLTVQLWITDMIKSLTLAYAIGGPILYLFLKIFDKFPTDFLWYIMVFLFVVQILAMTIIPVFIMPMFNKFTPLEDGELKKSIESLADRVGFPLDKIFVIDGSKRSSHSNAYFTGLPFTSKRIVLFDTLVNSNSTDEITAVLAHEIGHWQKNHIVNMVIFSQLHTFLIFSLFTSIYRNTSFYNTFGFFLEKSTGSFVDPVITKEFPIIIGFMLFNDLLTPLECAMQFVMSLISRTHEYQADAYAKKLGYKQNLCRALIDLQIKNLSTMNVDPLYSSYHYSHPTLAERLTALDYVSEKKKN
Chain of Guanyl-specific ribonuclease T1 (P00651 whole entry): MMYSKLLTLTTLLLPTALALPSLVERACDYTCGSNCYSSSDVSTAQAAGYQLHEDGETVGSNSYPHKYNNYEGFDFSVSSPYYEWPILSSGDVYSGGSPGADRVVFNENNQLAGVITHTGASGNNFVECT
Chain of Lysine-specific demethylase 4C (Q9H3R0 whole entry): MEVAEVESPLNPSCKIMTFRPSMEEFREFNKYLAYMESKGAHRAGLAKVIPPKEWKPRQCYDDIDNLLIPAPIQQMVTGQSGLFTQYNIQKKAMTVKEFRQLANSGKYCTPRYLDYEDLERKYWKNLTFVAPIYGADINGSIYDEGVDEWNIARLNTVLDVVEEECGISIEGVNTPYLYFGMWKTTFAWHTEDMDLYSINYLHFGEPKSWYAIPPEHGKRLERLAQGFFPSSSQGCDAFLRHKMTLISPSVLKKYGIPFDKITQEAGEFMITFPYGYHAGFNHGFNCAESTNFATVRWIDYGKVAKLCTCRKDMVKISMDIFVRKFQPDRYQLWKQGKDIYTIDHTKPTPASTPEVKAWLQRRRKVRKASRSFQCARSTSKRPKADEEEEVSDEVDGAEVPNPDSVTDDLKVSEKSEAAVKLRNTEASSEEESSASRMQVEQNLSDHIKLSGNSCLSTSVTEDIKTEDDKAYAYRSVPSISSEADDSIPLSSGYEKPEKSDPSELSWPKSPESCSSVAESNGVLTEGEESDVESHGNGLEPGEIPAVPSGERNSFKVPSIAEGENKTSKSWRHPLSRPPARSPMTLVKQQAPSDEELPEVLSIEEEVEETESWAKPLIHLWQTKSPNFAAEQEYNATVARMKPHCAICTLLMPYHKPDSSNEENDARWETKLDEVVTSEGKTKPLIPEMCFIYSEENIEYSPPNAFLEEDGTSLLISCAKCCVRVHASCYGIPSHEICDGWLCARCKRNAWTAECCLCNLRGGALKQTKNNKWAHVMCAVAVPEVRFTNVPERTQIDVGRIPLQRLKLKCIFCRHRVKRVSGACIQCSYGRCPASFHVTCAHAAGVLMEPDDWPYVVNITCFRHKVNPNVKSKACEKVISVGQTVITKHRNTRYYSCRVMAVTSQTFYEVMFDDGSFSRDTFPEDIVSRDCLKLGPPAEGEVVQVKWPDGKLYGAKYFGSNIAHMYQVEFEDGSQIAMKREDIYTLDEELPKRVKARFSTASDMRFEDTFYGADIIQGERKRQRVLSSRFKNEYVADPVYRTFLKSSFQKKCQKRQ
Chain of Likely tRNA 2'-phosphotransferase (Q5A7N4 whole entry): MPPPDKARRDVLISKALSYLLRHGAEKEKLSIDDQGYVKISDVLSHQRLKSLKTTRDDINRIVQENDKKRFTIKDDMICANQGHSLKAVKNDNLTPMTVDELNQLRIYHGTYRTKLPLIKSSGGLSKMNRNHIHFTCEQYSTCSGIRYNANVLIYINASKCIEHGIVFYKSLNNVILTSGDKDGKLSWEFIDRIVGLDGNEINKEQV

NC(=O)[C@H]1CC2(CC(c3cccc(NC(=O)COc4ccc(Cl)cc4)c3)=NO2)CN1C(=O)C(c1ccccc1)c1ccccc1 (stereo not given in full)
IC50 [1]: > 69.5 µM (inactive)
AC50 (CAAX prenyl protease 1): 5.73 µM (active)
AC50 (CAAX prenyl protease 2): 2.68 µM (active)
IC50 [2]: > 69.5 µM (inactive)
AC50 (Paired box protein Pax-8): 15.7 µM (active)

S=C(c1cn(CCOc2ccccc2)c2ccccc12)N1CCCC1
IC50 [3]: 3.97 µM (active)
IC50 [4]: 8.8 µM (active)
IC50 [5]: 5.47 µM (active)
IC50 [6]: 1.27 µM (active)
IC50 [7]: 17 µM (active)
IC50 [8]: > 158 µM (not active)
IC50 [9]: 0.129 µM (active)
IC50 [10]: 0.727 µM (active)
IC50 [11]: > 99 µM (inactive)
IC50 [12]: > 99 µM (inactive)

COc1ccc(OC)c(N2C(=O)/C(=C/c3ccco3)C(=O)NC2=S)c1
IC50 [3]: < 1.23 µM (inactive)
IC50 [4]: < 1.23 µM (inactive)
IC50 [13]: 8.01 µM (active)
IC50 [8]: < 1.23 µM (not active)
IC50 [14]: > 55.7 µM (not active)
AC50 [15]: 4.67 µM (active)
AC50 [16]: 16.2 µM (active)
IC50 (Hexokinase HKDC1): 2.57 µM (active)

Fc1ccc(CCNCc2ccc(Cl)c(Cl)c2)cc1
EC50 [17]: 0.915 µM (active)
EC50 [18]: > 195 µM (not active)
EC50 [19]: 0.915 µM (active)

CC(C)CCN1CC2CCC(NC(=O)c3cc(Cl)cc(Cl)c3)C2C1 (stereo not given)
EC50 [20]: 1.8 µM (active)

O=C(N/N=C/c1cn(-c2cccs2)nc1-c1ccccc1)c1ccccc1Br
EC50 [21]: 30.2 µM (active)
AC50 [22]: 23 µM (active)
EC50 [23]: 31 µM (active)
AC50 [24]: 3.75 µM (active)

O=C(O)c1cccc(NC(=S)N/N=C/c2ccccn2)c1
AC50 [25]: 8.63 µM (active)
IC50 [26]: > 119 µM (inactive)
IC50 (Exodeoxyribonuclease V): > 119 µM (inactive)
IC50 (Nonstructural protein 1): 4.06 µM (active)
